In patent US6274715A, “Tricyclic erythromycin derivatives” (priority 1997, dated 2001):
Values after ≈ are worked out from the molar mass of the structure shown.

Legend:
Type in all cases: cell-based
[1] = system: PSEUDOMONAS AERUGINOSA BMH10; assay: In vitro antibacterial activity, MIC, BHI agar dilution; conditions: P. aeruginosa BMH10, unit assumed
[2] = system: STREPTOCOCCUS PYOGENES 930; assay: as above; conditions: S. pyogenes 930, unit assumed
[3] = system: PROVIDENCIA STUARTII CMX 640; conditions: P. stuartii CMX 640; BHI agar; unit assumed
[4] = system: STAPHYLOCOCCUS AUREUS 1775; assay: In vitro antibacterial activity, MIC, BHI agar dilution; conditions: S. aureus 1775, unit assumed
[5] = system: MYCOBACTERIUM SMEGMATIS ATCC 114; assay: as above; conditions: M. smegmatis ATCC 114, unit assumed
PSEUDOMONAS CEPACIA 296I = assay: as above; conditions: P. cepacia 296I, unit assumed
ESCHERICHIA COLI KNK 437 = conditions: E. coli KNK 437; BHI agar; unit assumed
[6] = system: PSEUDOMONAS AERUGINOSA 5007; assay: In vitro antibacterial activity, MIC, BHI agar dilution; conditions: P. aeruginosa 5007, unit assumed
[7] = system: STREPTOCOCCUS PYOGENES EES61; assay: as above; conditions: S. pyogenes EES61, unit assumed
[8] = system: STREPTOCOCCUS BOVIS A-5169; assay: as above; conditions: S. bovis A-5169, unit assumed
[9] = system: STREPTOCOCCUS PYOGENES PIU 2548; assay: as above; conditions: S. pyogenes PIU 2548, unit assumed
[10] = system: STAPHYLOCOCCUS AUREUS CMX 642A; assay: as above; conditions: S. aureus CMX 642A, unit assumed
[11] = system: STAPHYLOCOCCUS EPIDERMIDIS 3519; conditions: S. epidermidis 3519; BHI agar; unit assumed
[12] = system: ENTEROBACTER AEROGENES ATCC 13048; assay: In vitro antibacterial activity, MIC, BHI agar dilution; conditions: E. aerogenes ATCC 13048, unit assumed
[13] = system: STAPHYLOCOCCUS AUREUS ATCC 6538P; assay: as above; conditions: S. aureus ATCC 6538P, 35-37° C., 20 to 24 hours, unit assumed
[14] = system: STAPHYLOCOCCUS AUREUS CMX 553; assay: as above; conditions: S. aureus CMX 553, unit assumed
[15] = system: KLEBSIELLA PNEUMONIAE ATCC 8045; assay: as above; conditions: K. pneumoniae ATCC 8045, unit assumed
STR[…] 508 = assay: as above; conditions: S. agalactiae CMX 508, unit assumed
Procedure, shortened: (§1)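 Agar dilution in BHI: plates inoculated with 1:100 dilutions of organisms (1:10 for Micrococcus and Streptococcus), incubated 20-24 h at 35-37° C, then inspected for the lowest inhibitory concentration against a drug-free growth control.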

EN[…] ATCC 8043 = assay: as above; conditions: E. faecium ATCC 8043, unit assumed
Procedure, shortened: as §1

M[…] ATCC 4698 = assay: as above; conditions: M. luteus ATCC 4698, unit assumed
Procedure, shortened: as §1

M[…] ATCC 9341 = assay: as above; conditions: M. luteus ATCC 9341, unit assumed
Procedure, shortened: as §1

[16] = system: PSEUDOMONAS AERUGINOSA K799/61; assay: as above; conditions: P. aeruginosa K799/61, unit assumed
ESCHERICHIA COLI DC-2 = assay: as above; conditions: E. coli DC-2, unit assumed
ESCHERICHIA COLI H560 = assay: as above; conditions: E. coli H560, unit assumed
CANDIDA ALBICANS CCH 442 = assay: as above; conditions: C. albicans CCH 442, unit assumed
[17] = system: PSEUDOMONAS AERUGINOSA DPHD-5263; assay: as above; conditions: P. aeruginosa DPHD-5263, unit assumed
[18] = system: STAPHYLOCOCCUS AUREUS A5177; assay: as above; conditions: S. aureus A5177, unit assumed
ESCHERICHIA COLI JUHL = conditions: E. coli JUHL; BHI agar; unit assumed
[19] = system: PSEUDOMONAS AERUGINOSA K799/WT; assay: In vitro antibacterial activity, MIC, BHI agar dilution; conditions: P. aeruginosa K799/WT, unit assumed
[20] = system: STAPHYLOCOCCUS AUREUS NCTC10649M; assay: as above; conditions: S. aureus NCTC10649M, unit assumed
[21] = system: PSEUDOMONAS AERUGINOSA DPHD-2862; assay: as above; conditions: P. aeruginosa DPHD-2862, unit assumed
[22] = system: STAPHYLOCOCCUS AUREUS A-5278; assay: as above; conditions: S. aureus A-5278, unit assumed
ESCHERICHIA COLI SS = assay: as above; conditions: E. coli SS, unit assumed

Compound	MIC [1]	MIC [2]	MIC [3]	MIC [4]	MIC [5]	MIC (PSEUDOMONAS CEPACIA 296I)	MIC (ESCHERICHIA COLI KNK 437)	MIC [6]	MIC [7]	MIC [8]	MIC [9]	MIC [10]	MIC [11]	MIC [12]	MIC [13]	MIC [14]	MIC [15]	MIC (STR[…] 508)	MIC (EN[…] ATCC 8043)	MIC (M[…] ATCC 4698)	other results
CC[C@H]1OC(=O)[C@H](C)C(=O)[C@H](C)[C@@H](O[C@@H]2O[C@H](C)C[C@H](N(C)C)[C@H]2O)[C@](C)(OC)C[C@@H](C)C2=NCC(COC(=O)c3ccc([N+](=O)[O-])cc3)N3C(=O)O[C@@]1(C)[C@H]3[C@H]2C (stereo partly drawn) [Example 140]	> 100 µg/mL	50 µg/mL (≈ 61.2 µM)	> 100 µg/mL	> 100 µg/mL	0.39 µg/mL (≈ 0.477 µM)	25 µg/mL (≈ 30.6 µM)	50 µg/mL (≈ 61.2 µM)	> 100 µg/mL	≤ 0.005 µg/mL	≤ 0.005 µg/mL	0.2 µg/mL (≈ 0.245 µM)	0.1 µg/mL (≈ 0.122 µM)	0.1 µg/mL (≈ 0.122 µM)	> 100 µg/mL	0.1 µg/mL (≈ 0.122 µM)	0.1 µg/mL (≈ 0.122 µM)	> 100 µg/mL	0.02 µg/mL (≈ 0.0245 µM)	0.05 µg/mL (≈ 0.0612 µM)	0.1 µg/mL (≈ 0.122 µM)	MIC (M[…] ATCC 9341): 0.01 µg/mL (≈ 0.0122 µM); MIC [16]: 0.39 µg/mL (≈ 0.477 µM); MIC (ESCHERICHIA COLI DC-2): 50 µg/mL (≈ 61.2 µM); MIC (ESCHERICHIA COLI H560): 25 µg/mL (≈ 30.6 µM); MIC (CANDIDA ALBICANS CCH 442): > 100 µg/mL; MIC [17]: > 100 µg/mL; MIC [18]: 0.1 µg/mL (≈ 0.122 µM); MIC (ESCHERICHIA COLI JUHL): 50 µg/mL (≈ 61.2 µM); MIC [19]: > 100 µg/mL; MIC [20]: 0.1 µg/mL (≈ 0.122 µM); MIC [21]: > 100 µg/mL; MIC [22]: > 100 µg/mL; MIC (ESCHERICHIA COLI SS): 0.78 µg/mL (≈ 0.955 µM)
CC[C@H]1OC(=O)[C@H](C)C(=O)[C@H](C)[C@@H](O[C@@H]2O[C@H](C)C[C@H](N(C)C)[C@H]2O)[C@](C)(OC)C[C@@H](C)C2=NCC(COC(=O)c3ccc(Cl)cc3)N3C(=O)O[C@@]1(C)[C@H]3[C@H]2C (stereo partly drawn) [Example 141]	100 µg/mL (≈ 124 µM)	50 µg/mL (≈ 62 µM)	> 100 µg/mL	50 µg/mL (≈ 62 µM)	0.2 µg/mL (≈ 0.248 µM)	25 µg/mL (≈ 31 µM)	50 µg/mL (≈ 62 µM)	> 100 µg/mL	≤ 0.005 µg/mL	≤ 0.005 µg/mL	0.2 µg/mL (≈ 0.248 µM)	0.1 µg/mL (≈ 0.124 µM)	0.1 µg/mL (≈ 0.124 µM)	> 100 µg/mL	0.1 µg/mL (≈ 0.124 µM)	0.1 µg/mL (≈ 0.124 µM)	100 µg/mL (≈ 124 µM)	0.02 µg/mL (≈ 0.0248 µM)	0.02 µg/mL (≈ 0.0248 µM)	0.1 µg/mL (≈ 0.124 µM)	MIC (M[…] ATCC 9341): 0.01 µg/mL (≈ 0.0124 µM); MIC [16]: 1.56 µg/mL (≈ 1.93 µM); MIC (ESCHERICHIA COLI DC-2): 50 µg/mL (≈ 62 µM); MIC (ESCHERICHIA COLI H560): 12.5 µg/mL (≈ 15.5 µM); MIC (CANDIDA ALBICANS CCH 442): > 100 µg/mL; MIC [17]: > 100 µg/mL; MIC [18]: 0.1 µg/mL (≈ 0.124 µM); MIC (ESCHERICHIA COLI JUHL): 50 µg/mL (≈ 62 µM); MIC [19]: > 100 µg/mL; MIC [20]: 0.1 µg/mL (≈ 0.124 µM); MIC [21]: > 100 µg/mL; MIC [22]: 50 µg/mL (≈ 62 µM); MIC (ESCHERICHIA COLI SS): 0.78 µg/mL (≈ 0.967 µM)
